{
  "source": "paper PMC12022903",
  "about": "“Evaluation of drug-drug interaction between Suraxavir Marboxil (GP681) and itraconazole, and assessment of the impact of gene polymorphism” (Frontiers in Pharmacology, 2025)",
  "test": "Pharmacokinetic parameters of GP1707D07 (HPLC-MS/MS, non-compartmental) in the GP681-itraconazole drug-drug interaction study",
  "format": "in vivo, healthy Chinese subjects",
  "description": "This single-center, open-label, self-controlled, fixed-sequence study, sponsored by Qingfeng Pharmaceutical Group Co., Ltd., was conducted at a single clinical research site in the China–Japan Friendship Hospital (Beijing, China). Each subject received the following treatment: Suraxavir Marboxil (GP681) 20 mg in the fasted state on day 1 and day 26. Itraconazole capsules (Sporanox®: Xi’an Yangsen Pharmaceutical Co., Ltd., China) 0.2 g twice daily (BID, bis in die) on day 22. Itraconazole 0.2 g daily from day 23 to day 36 [including day 26, when itraconazole was co-administrated with Suraxavir Marboxil (GP681)]. The washout period is 21 days (Figure 2). It should be noted that in the following sections, when discussing the PK profile, this study was divided into Period 1 (Suraxavir Marboxil (GP681) monotherapy, from day −1 to day 12), and Period 2 (Suraxavir Marboxil (GP681)-itraconazole co-administration, from day 21 to day 36). When discussion the safety profile, this study was divided into Stage 1 (Suraxavir Marboxil (GP681) monotherapy stage, from day 1 to day 21), Stage 2 (itraconazole monotherapy stage, from day 22 to day 25), and Stage 3 (Suraxavir Marboxil (GP681)-itraconazole co-administration stage, from d 26 to d 36).\nBlood samples were collected at the following time points: pre–dose, 0.5, 1, 2, 3, 4, 5, 6, 8, 12, 24, 36, 48, 72, 120, 168, and 264 h post-dose on day 1 and day 26. In addition, a blood sample were collected before dosing on day 1 for genetic polymorphism assessment.\nA validated high-performance liquid chromatography-tandem mass spectrometry (HPLC-MS/MS) method was used to determine plasma concentrations of Suraxavir Marboxil (GP681) and its active metabolite GP1707D07 at different times, with the quantification range of 0.3/0.3–300/300 ng/mL for Suraxavir Marboxil (GP681) and GP1707D07. The lower limit of quantification (LLOQ) for both compounds was 0.300 ng/mL. Phoenix® WinNonlin® 8.3 was used to estimate and analyze the pharmacokinetic parameters of non-compartmental model from plasma concentration data. Pharmacokinetic parameters included: maximum plasma concentration (Cmax), area under the plasma concentration-time curve extrapolated from time zero to infinity (AUC0- ∞ ), time to Cmax (Tmax), half-life (t1/2), λz, AUC_%Extrap, Vz/F, CL/F, and mean residence time (MRT).\nStatistical analysis was performed using SAS (version 9.4 or above) software programming. Pharmacokinetic concentration analysis was based on Pharmacokinetic Analysis Concentration Set (PKCS). Individual and mean concentrations (mean ± SD) were plotted against planned blood sampling time points for the analyte on linear and semi-log scales. Pharmacokinetic parameter analysis was based on Pharmacokinetic Analysis Parameter Set (PKPS). Drug interaction analysis was based on Drug Interaction Set (DIS). The geometric mean ratios and their 90% confidence intervals of pharmacokinetic parameters Cmax, AUC0-t, and AUC0- ∞ under Suraxavir Marboxil (GP681) single dose and Suraxavir Marboxil (GP681)-itraconazole co-administration conditions were calculated after natural logarithm transformation, using a linear mixed effects model with subjects as random effects and treatment (combined/single) as fixed effects.\n1.3 Pharmacokinetic Sample Collection and Processing: Pharmacokinetic Analysis: Approximately 4 mL of blood is collected each time into a tube containing sodium fluoride/potassium oxalate as an anticoagulant. The tube is then placed upright in an ice-water bath. The plasma samples are separated by centrifugation for the detection of GP681/GP1707D07 blood drug concentrations. Both sample collection and processing are conducted under white light conditions. […]",
  "key": {"[1]": {"details": "GP681 + itraconazole vs GP681 alone, N=12"}, "[2]": {"details": "Period 1, GP681 20 mg monotherapy, geometric mean, N=12"}, "[3]": {"details": "Period 1, GP681 20 mg monotherapy, individual subjects"}, "[4]": {"details": "Period 1, GP681 20 mg monotherapy, mean, N=12"}, "[5]": {"details": "Period 1, GP681 20 mg monotherapy, median, N=12"}, "[6]": {"details": "Period 2, GP681 20 mg + itraconazole, geometric mean, N=12"}},
  "note": "Several values for one entry are separate records, joined by “and”; a condition that tells them apart may be missing. Equal values may be shown once.",
  "data": [
    {"smiles": "O=C1c2c(O)c(=O)ccn2N([C@@H]2c3ccccc3SCc3c2ccc(F)c3F)[C@@H]2COC3(CC3)CN12", "note": "[GP1707D07]", "values": [
      {"measurement": "AUC0-t: point estimate of geometric mean ratio (90% CI) Period 2/Period 1", "setting": "[1]", "value": "215.2% and 215.2 (170.7, 271.3) %"},
      {"measurement": "AUC0-∞: point estimate of geometric mean ratio (90% CI) Period 2/Period 1", "setting": "[1]", "value": "255.4% and 255.4 (204.5, 319.0) %"},
      {"measurement": "Cmax: point estimate of geometric mean ratio (90% CI) Period 2/Period 1", "setting": "[1]", "value": "137.7% and 137.7 (98.5, 192.3) %"},
      {"measurement": "AUC0-t", "setting": "[2]", "value": 955.800, "unit": "ng·h/mL"},
      {"measurement": "AUC_%Extrap", "setting": "[2]", "value": 7.117, "unit": "%"},
      {"measurement": "CL/F", "setting": "[2]", "value": 19.255, "unit": "L/h"},
      {"measurement": "Cmax", "setting": "[2]", "value": "16.0 ng/mL and 16.0070 ng/mL"},
      {"measurement": "MRT0-t", "setting": "[2]", "value": 66.790, "unit": "h"},
      {"measurement": "MRT0-∞", "setting": "[2]", "value": "87.2 h and 87.218 h"},
      {"measurement": "Tmax", "setting": "[2]", "value": 3.7, "unit": "h"},
      {"measurement": "Vz/F", "setting": "[2]", "value": 1799.125, "unit": "L"},
      {"measurement": "t1/2", "setting": "[2]", "value": "64.8 h and 64.764 h"},
      {"measurement": "λz", "setting": "[2]", "value": 0.0107, "unit": "h⁻¹"},
      {"measurement": "AUC0-t", "setting": "[3]", "value": "1770.18 ng·h/mL and 1069.77 ng·h/mL and 1199.27 ng·h/mL and 602.25 ng·h/mL and 1158.79 ng·h/mL and 728.18 ng·h/mL and 1487.97 ng·h/mL and 759.35 ng·h/mL and 1247.30 ng·h/mL and 1364.54 ng·h/mL and 354.04 ng·h/mL and 739.81 ng·h/mL and 1069.8 ng·h/mL and 1199.3 ng·h/mL and 602.3 ng·h/mL and 1158.8 ng·h/mL and 728.2 ng·h/mL and 1488.0 ng·h/mL and 759.4 ng·h/mL and 1364.5 ng·h/mL and 354.0 ng·h/mL and 739.8 ng·h/mL and 1770.2 ng·h/mL"},
      {"measurement": "AUC0-∞", "setting": "[3]", "value": "1874.52 ng·h/mL and 1171.14 ng·h/mL and 1273.75 ng·h/mL and 689.41 ng·h/mL and 1290.37 ng·h/mL and 801.51 ng·h/mL and 1650.91 ng·h/mL and 781.02 ng·h/mL and 1310.49 ng·h/mL and 1409.63 ng·h/mL and 407.77 ng·h/mL and 814.16 ng·h/mL"},
      {"measurement": "AUC_%Extrap", "setting": "[3]", "value": "5.57% and 8.66% and 5.85% and 12.64% and 10.20% and 9.15% and 9.87% and 2.78% and 4.82% and 3.20% and 13.18% and 9.13%"},
      {"measurement": "CL/F", "setting": "[3]", "value": "10.67 L/h and 17.08 L/h and 15.70 L/h and 29.01 L/h and 15.50 L/h and 24.95 L/h and 12.11 L/h and 25.61 L/h and 15.26 L/h and 14.19 L/h and 49.05 L/h and 24.57 L/h"},
      {"measurement": "Cmax", "setting": "[3]", "value": "44.439 ng/mL and 17.988 ng/mL and 26.933 ng/mL and 7.24 ng/mL and 15.539 ng/mL and 12.018 ng/mL and 25.999 ng/mL and 16.03 ng/mL and 20.468 ng/mL and 30.14 ng/mL and 3.382 ng/mL and 11.179 ng/mL and 18.0 ng/mL and 26.9 ng/mL and 7.2 ng/mL and 15.5 ng/mL and 12.0 ng/mL and 26.0 ng/mL and 16.0 ng/mL and 20.5 ng/mL and 30.1 ng/mL and 3.4 ng/mL and 11.2 ng/mL and 44.4 ng/mL"},
      {"measurement": "MRT0-t", "setting": "[3]", "value": "61.44 h and 71.79 h and 62.61 h and 74.73 h and 74.78 h and 69.62 h and 63.68 h and 57.28 h and 63.69 h and 56.39 h and 80.89 h and 69.22 h"},
      {"measurement": "MRT0-∞", "setting": "[3]", "value": "75.90 h and 95.15 h and 78.26 h and 108.96 h and 102.37 h and 94.31 h and 93.23 h and 64.34 h and 75.97 h and 64.54 h and 117.49 h and 94.32 h"},
      {"measurement": "Tmax", "setting": "[3]", "value": "3 h and 6 h and 2 h and 5 h and 4 h"},
      {"measurement": "Vz/F", "setting": "[3]", "value": "857.04 L and 1725.92 L and 1402.22 L and 3031.63 L and 1619.87 L and 2462.69 L and 1483.10 L and 1801.98 L and 1183.17 L and 996.59 L and 5767.31 L and 2522.77 L"},
      {"measurement": "t1/2", "setting": "[3]", "value": "55.68 h and 70.05 h and 61.90 h and 72.43 h and 72.44 h and 68.41 h and 84.86 h and 48.78 h and 53.74 h and 48.69 h and 81.51 h and 71.18 h"},
      {"measurement": "λz", "setting": "[3]", "value": "0.012 h⁻¹ and 0.010 h⁻¹ and 0.011 h⁻¹ and 0.008 h⁻¹ and 0.014 h⁻¹ and 0.013 h⁻¹ and 0.009 h⁻¹"},
      {"measurement": "AUC_%Extrap", "setting": "[4]", "value": "7.9 (3.4) % and 7.919%"},
      {"measurement": "CL/F", "setting": "[4]", "value": "21.1 (10.6) L/h and 21.141 L/h"},
      {"measurement": "Cmax", "setting": "[4]", "value": "19.3 (11.2) ng/mL and 19.2796 ng/mL"},
      {"measurement": "MRT0-t", "setting": "[4]", "value": "67.2 (7.5) h and 67.176 h"},
      {"measurement": "MRT0-∞", "setting": "[4]", "value": "88.7 (17.0) h and 88.737 h"},
      {"measurement": "Tmax", "setting": "[4]", "value": 4.0, "unit": "h"},
      {"measurement": "Vz/F", "setting": "[4]", "value": "2071.2 (1,333.0) L and 2071.190 L"},
      {"measurement": "t1/2", "setting": "[4]", "value": "65.8 (12.1) h and 65.805 h"},
      {"measurement": "λz", "setting": "[4]", "value": "0.011 (0.0021) h-1 and 0.0109 h-1"},
      {"measurement": "Tmax", "setting": "Period 1, GP681 20 mg monotherapy, median (range), N=12", "value": "4.0 (2.0–6.0) h"},
      {"measurement": "AUC0-t", "setting": "[5]", "value": 1114.281, "unit": "ng·h/mL"},
      {"measurement": "AUC0-∞", "setting": "[5]", "value": 1222.445, "unit": "ng·h/mL"},
      {"measurement": "AUC_%Extrap", "setting": "[5]", "value": 8.894, "unit": "%"},
      {"measurement": "CL/F", "setting": "[5]", "value": 16.390, "unit": "L/h"},
      {"measurement": "Cmax", "setting": "[5]", "value": 17.0090, "unit": "ng/mL"},
      {"measurement": "MRT0-t", "setting": "[5]", "value": 66.454, "unit": "h"},
      {"measurement": "MRT0-∞", "setting": "[5]", "value": 93.771, "unit": "h"},
      {"measurement": "Vz/F", "setting": "[5]", "value": 1672.897, "unit": "L"},
      {"measurement": "t1/2", "setting": "[5]", "value": 69.231, "unit": "h"},
      {"measurement": "λz", "setting": "[5]", "value": 0.0100, "unit": "h⁻¹"},
      {"measurement": "AUC0-t", "setting": "[6]", "value": "2057.0 ng·h/mL and 2057.031 ng·h/mL"},
      {"measurement": "AUC_%Extrap", "setting": "[6]", "value": 21.847, "unit": "%"},
      {"measurement": "CL/F", "setting": "[6]", "value": 7.539, "unit": "L/h"}
    ]}
  ]
}
